Results on four compounds are retold here after patent US6660755B2, “Substituted diaryl or diheteroaryl methans, ethers and amines having retinoid agonist, antagonist or inverse agonist type biological activity” (Allergan, Inc., priority 1997, dated 2003).

For experiment [1], the target named is RARβ (Homo sapiens, UniProt P10826, E106G/G107S/G110V). Nature of the experiment: PGR assay (RAR-P-GR holoreceptor transactivation), RARβ. The class given is cell-based. As to conditions: for EC50: PGR assay (transactivation), CV-1 cells, luciferase reporter; for Emax: 18 h. An excerpt: (§1) A holoreceptor transactivation assay and a ligand binding assay which measure the antagonist/agonist like activity of the compounds of the invention, or their ability to bind to the several retinoid receptor subtypes, respectively, are described in published PCT Application No. WO WO93/11755 (particularly on pages 30-33 and 37-41) published on Jun. 24, 1993, the specification of which is also incorporated herein by reference. A detailed experimental procedure for holoreceptor transactivations has been described by Heyman et al. Cell 1992, 68, 397-406; Allegretto et al. J. Biol. Chem. 1993 268, 26625-26633, and Mangelsdorf et al. The Retinoids: Biology, Chemistry and Medicine, pp 319-349, Raven Press Ltd., New York, which are expressly incorporated herein by reference. The results obtained in this assay are expressed in EC50 numbers, as they are also in the chimeric receptor transactivation assay. The results of ligand binding assay are expressed in Kd numbers. (See Cheng et al. Biochemical Pharmacology 22, 3099-3108, expressly incorporated herein by reference.) Still another transactivation assay, the “PGR assay” is described in the publication Klein et al. J. Biol. Chem. 1996, 271, 22692-22696, which is expressly incorporated herein by reference, and a detailed description is also provided below. The results of the PGR assay are also expressed in EC50 numbers (nanomolar concentration).
Chain of RARβ (P10826 whole entry E106G/G107S/G110V, one chain of several): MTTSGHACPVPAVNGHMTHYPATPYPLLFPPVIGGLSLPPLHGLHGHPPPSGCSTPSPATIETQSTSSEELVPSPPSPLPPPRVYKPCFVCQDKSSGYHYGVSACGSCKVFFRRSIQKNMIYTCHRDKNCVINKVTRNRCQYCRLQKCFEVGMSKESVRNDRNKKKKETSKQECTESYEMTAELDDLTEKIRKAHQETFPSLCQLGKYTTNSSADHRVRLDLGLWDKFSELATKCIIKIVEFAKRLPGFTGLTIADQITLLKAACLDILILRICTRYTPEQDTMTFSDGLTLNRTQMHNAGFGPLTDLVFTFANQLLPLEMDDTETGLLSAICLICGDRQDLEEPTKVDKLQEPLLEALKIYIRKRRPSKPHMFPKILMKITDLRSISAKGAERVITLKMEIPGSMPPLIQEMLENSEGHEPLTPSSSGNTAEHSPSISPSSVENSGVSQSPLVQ
(§2) RAR-P-GR holoreceptor Transactivation Assay
(§3) CV-1 cells (4×10^5 cells/well) were transiently transfected with the luciferase reporter plasmid MTV-4(R5G)-Luc (0.7 μg/well) containing four copies of the R5G retinoid DNA response element along with the RXRα expression plasmid pRS-hRXRa (0.1 μg/well) and one of the RAR-P-GR expression plasmids (0.05 μg/well) in 12 well plates via calcium phosphate precipitation Chen et al. Mol. Cell. Biol. 1987, 7, 2745-2752 as described by Klein et al. J. Biol. Chem. 1996, 271, 22692, referenced above. The three different RAR-P-GR expression plasmids, pRS-RARα-P-GR, pcDNA3-RARβ-P-GR and pcDNA3-RARγ-P-GR, express RARα, RARβ and RARγ receptors, respectively, which contain modified DNA binding domains such that their “P-boxes” have been altered to that of the glucocorticoid receptor. These RAR-P-GR receptors bind to DNA as heterodimeric complexes with RXR. Specifically, the RAR-P-GR receptors bind retinoic acid response elements designated R5G, comprised of two RAR half sites (nucleotide sequence 5′-GGTTCA-3′) separated by 5 base pairs in which the 3′-half site has been modified to that of a glucocorticoid receptor half site, 5′-AGAACA-3′. To allow for various in transfection efficiency a β-galactosidase expression plasmid (0.01 μg/well) was used as an internal control. Alternatively, the assay was performed in a 96-well microtiter plate format (5000 cells/well) in a manner which was identical to that described above except ⅕ of the amount of the DNA-calcium phosphate precipitant (20 μl instead of 100 Al) was applied to each well. Eighteen hours after introduction of the DNA precipitants, cells were rinsed with phosphate buffered saline (PBS) and fed with D-MEM (Gibco-BRL) containing 10% activated charcoal extracted fetal bovine serum (Gemini Bio-Products). After rinsing with PBS cells were lysed with luciferase activity was measured as previously described in de Wet Mol. Cell. Biol. 1987, 7, 725-737. Luciferase values represent the mean±SEM of triplicate determinations normalized to β-galactosidase activity. The results of the PGR assay are also expressed in EC50 numbers (nanomolar concentration).
A general note: Reporter assays use an easily measured gene product as a stand-in for the process of interest.

Experiment [2] concerns the target T1, RARγ (Homo sapiens, UniProt P13631, E108G/G109S/G112V).
T1 construct: expressed in transfected cells; host or cells: CV-1 cells
T1 sequence (P13631 1-454 E108G/G109S/G112V): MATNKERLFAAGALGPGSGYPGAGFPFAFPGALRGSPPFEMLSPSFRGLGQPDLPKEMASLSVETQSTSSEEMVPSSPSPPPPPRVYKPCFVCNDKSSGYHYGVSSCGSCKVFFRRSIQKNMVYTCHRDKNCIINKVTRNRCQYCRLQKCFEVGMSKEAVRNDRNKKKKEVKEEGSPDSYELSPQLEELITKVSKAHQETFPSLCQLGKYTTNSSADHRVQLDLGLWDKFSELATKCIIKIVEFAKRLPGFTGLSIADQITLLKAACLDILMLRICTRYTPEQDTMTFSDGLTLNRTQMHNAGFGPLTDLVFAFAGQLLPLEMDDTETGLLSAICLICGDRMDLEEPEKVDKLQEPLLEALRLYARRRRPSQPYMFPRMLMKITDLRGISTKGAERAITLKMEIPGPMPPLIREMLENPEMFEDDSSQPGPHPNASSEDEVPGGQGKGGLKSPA
T1 sequence (P19793 1-462 partner): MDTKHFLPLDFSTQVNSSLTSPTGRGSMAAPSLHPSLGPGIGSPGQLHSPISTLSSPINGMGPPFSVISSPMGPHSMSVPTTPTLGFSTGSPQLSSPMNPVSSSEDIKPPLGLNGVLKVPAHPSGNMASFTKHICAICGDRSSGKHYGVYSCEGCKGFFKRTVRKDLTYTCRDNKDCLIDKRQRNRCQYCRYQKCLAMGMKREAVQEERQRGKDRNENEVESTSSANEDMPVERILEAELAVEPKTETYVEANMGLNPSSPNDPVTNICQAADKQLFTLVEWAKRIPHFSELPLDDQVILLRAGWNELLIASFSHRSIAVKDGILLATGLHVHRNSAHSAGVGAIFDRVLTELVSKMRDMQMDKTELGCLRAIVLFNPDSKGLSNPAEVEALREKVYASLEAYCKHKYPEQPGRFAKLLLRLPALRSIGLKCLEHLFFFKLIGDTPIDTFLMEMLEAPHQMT
Briefly: PGR assay (RAR-P-GR holoreceptor transactivation), RARγ. The class given is cell-based. As to conditions: for EC50: PGR assay (transactivation), CV-1 cells, luciferase reporter; for % Efficiency RARγ: efficiency relative to all-trans-retinoic acid, PGR assay.
From the text: as §1, §2, §3

Experiment [3] has as its target T2, RARα (Homo sapiens, UniProt P10276).
T2 sequence (P10276 1-462): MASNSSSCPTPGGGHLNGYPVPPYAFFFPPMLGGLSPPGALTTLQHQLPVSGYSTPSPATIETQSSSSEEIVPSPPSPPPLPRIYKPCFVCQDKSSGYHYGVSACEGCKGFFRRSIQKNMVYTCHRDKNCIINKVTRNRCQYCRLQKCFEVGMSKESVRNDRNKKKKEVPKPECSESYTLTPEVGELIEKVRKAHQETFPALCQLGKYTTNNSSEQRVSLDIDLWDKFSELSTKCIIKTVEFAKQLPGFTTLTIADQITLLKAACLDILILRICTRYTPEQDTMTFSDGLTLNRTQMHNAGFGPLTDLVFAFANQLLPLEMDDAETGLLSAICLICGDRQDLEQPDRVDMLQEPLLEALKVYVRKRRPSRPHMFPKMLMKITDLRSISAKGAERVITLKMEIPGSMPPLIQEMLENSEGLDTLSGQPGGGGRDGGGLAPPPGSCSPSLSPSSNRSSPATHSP
Nature of the experiment: Ligand binding assay, RARα.
From the text: as §1

Where [4] appears, read: efficiency relative to all-trans-retinoic acid, PGR assay.

Some results are limits rather than exact numbers.

For `CC(C)(C)c1ccc(C#Cc2ccc(C(=O)O)cn2)cc1Oc1ccc(C(F)(F)F)cc1` [Compound 6, 6-[[4′-tert-Butyl-3′-(4″-trifluomethyl)phenoxy]phenylethynyl]-3-nicotinic Acid], the EC50 in experiment [1] and in experiment [2] was above 10 µM each time. In addition, in experiment [1] (setting [4]), the “% Efficiency RARβ” value worked out at 0%. Further, the “% Efficiency RARγ” value in experiment [2] is 70%. In experiment [3], the Kd was 1050 nM.
Consider `COC(=O)c1ccc(Oc2cc(C#Cc3ccc(C(=O)O)c(F)c3)ccc2C(C)(C)C)cc1` [Compound 10, 4-[[4′-tert-Butyl-3′-(4″-carbomethoxy)phenoxy]phenylethynyl]-2-fluorobenzoic Acid], for which the Emax in experiment [1] (setting [4]) is 0%. Further, the EC50 in experiment [1] is above 10 µM. Further, in experiment [2], the EC50 is above 10 µM and the “% Efficiency RARγ” value is 0%. In experiment [3], this compound returned a Kd of 15 nM.
`CC(C)(C)c1ccc(C#Cc2ccc(C(=O)O)c(F)c2)cc1Oc1ccc([N+](=O)[O-])cc1` [Compound 11, 4-[[4′-tert-Butyl-3′-(4″-nitro)phenoxy]phenylethynyl]-2-fluoro-benzoic Acid] had an Emax in experiment [1] (setting [4]) of 3%. Further, in experiment [1], the EC50 is above 10 µM. In experiment [2], the EC50 is above 10 µM and the “% Efficiency RARγ” value worked out at 1%. In experiment [3], this compound came in with a Kd of 24 nM.
In the case of `CC(C)(C)c1ccc(C(=O)Nc2ccc(C(=O)O)c(F)c2)cc1Oc1ccc(C(F)(F)F)cc1` [Compound 13, 4-[[4′-tert-Butyl-3′-(4″-trifluoromethyl)phenoxy]benzoylamino]-2-fluorobenzoic Acid], in experiment [1] (setting [4]), the Emax was determined as 5%. The EC50 in experiment [1] and in experiment [2] was above 10 µM each time. Also, in experiment [2], the “% Efficiency RARγ” value was found to be 4%. Also, in experiment [3], the Kd was 11 nM.

As a reminder, the EC50 is the concentration giving half of the maximal effect. A lower EC50 goes with an effect from little substance. What is called Kd is the free concentration of one partner at which half of the binding sites on the other are occupied at equilibrium, for simple one-to-one binding. For orientation: Emax means the greatest response seen or fitted, relative to the assay's reference.
